Assay results as given in the supplement of paper PMC8612539.
≈ marks a conversion by molar mass, not a printed value.

Test system: Mannheimia haemolytica
Assay: minimum inhibitory concentration (MIC)
Method: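 Broth microdilution MIC (Sensititre BOPO7F bovine plate, CLSI methods) of 19 antimicrobials against field isolates of P. multocida, M. haemolytica, H. somni (deep nasopharyngeal swabs) and E. coli, Enterococcus spp. (rectal swabs) from weaned dairy heifers. Incubation 16-24 h at 35 C. MIC is the lowest concentration preventing visible growth. Values with <= or > lie at the tested range limits. Trimethoprim-sulfamethoxazole is given as the trimethoprim component of a 1:19 mixture.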

CC[C@H]1OC(=O)C[C@@H](O)[C@H](C)[C@@H](O[C@@H]2O[C@H](C)[C@@H](O[C@H]3C[C@@](C)(O)[C@@H](O)[C@H](C)O3)[C@H](N(C)C)[C@H]2O)[C@@H](CC=O)C[C@@H](C)C(=O)/C=C/C(C)=C/[C@@H]1CO[C@@H]1O[C@H](C)[C@@H](O)[C@@H](OC)[C@H]1OC [Tylosin]
Conditions	minimum inhibitory concentration [µg/mL]
isolate (source animal id): 8	> 32
isolate (source animal id): 13	> 32
isolate (source animal id): 18	> 32
isolate (source animal id): 21	> 32
isolate (source animal id): 25	> 32
isolate (source animal id): 27	> 32
isolate (source animal id): 28	> 32
isolate (source animal id): 30	> 32
isolate (source animal id): 31	> 32
isolate (source animal id): 32	> 32
isolate (source animal id): 34	> 32
isolate (source animal id): 36	> 32
isolate (source animal id): 37	> 32
isolate (source animal id): 40	32 (≈ 34.9 µM)
isolate (source animal id): 41	> 32
isolate (source animal id): 43	> 32
isolate (source animal id): 46	> 32
isolate (source animal id): 49	> 32
isolate (source animal id): 50	> 32
isolate (source animal id): 51	> 32
isolate (source animal id): 52	> 32
isolate (source animal id): 53	> 32
isolate (source animal id): 55	32 (≈ 34.9 µM)
isolate (source animal id): 56	> 32
isolate (source animal id): 57	> 32
isolate (source animal id): 100	> 32
isolate (source animal id): 103	> 32
isolate (source animal id): 107	> 32
isolate (source animal id): 108	> 32
isolate (source animal id): 112	> 32
isolate (source animal id): 113	> 32
isolate (source animal id): 121	> 32
isolate (source animal id): 122	> 32
isolate (source animal id): 123	> 32
isolate (source animal id): 126	> 32
isolate (source animal id): 133	> 32
isolate (source animal id): 135	> 32
isolate (source animal id): 138	> 32
isolate (source animal id): 141	> 32
isolate (source animal id): 142	> 32
isolate (source animal id): 145	> 32
isolate (source animal id): 149	> 32
isolate (source animal id): 151	> 32
isolate (source animal id): 152	> 32
isolate (source animal id): 154	> 32
isolate (source animal id): 159	> 32
isolate (source animal id): 162	> 32
isolate (source animal id): 170	> 32
isolate (source animal id): 171	> 32
isolate (source animal id): 172	> 32
isolate (source animal id): 173	> 32
isolate (source animal id): 179	32 (≈ 34.9 µM)
isolate (source animal id): 180	> 32
isolate (source animal id): 183	> 32
isolate (source animal id): 186	> 32
isolate (source animal id): 187	> 32
isolate (source animal id): 188	> 32
isolate (source animal id): 190	> 32
isolate (source animal id): 191	> 32
isolate (source animal id): 192	> 32
isolate (source animal id): 201	> 32
isolate (source animal id): 202	> 32
isolate (source animal id): 209	> 32
isolate (source animal id): 211	> 32
isolate (source animal id): 220	> 32
isolate (source animal id): 221	> 32
isolate (source animal id): 223	> 32
isolate (source animal id): 233	> 32
isolate (source animal id): 237	> 32
isolate (source animal id): 241	> 32
isolate (source animal id): 252	> 32
isolate (source animal id): 253	> 32
isolate (source animal id): 259	> 32
isolate (source animal id): 260	> 32
isolate (source animal id): 262	> 32
isolate (source animal id): 282	> 32
isolate (source animal id): 287	> 32
isolate (source animal id): 288	> 32
isolate (source animal id): 291	> 32
isolate (source animal id): 293	> 32
isolate (source animal id): 298	> 32
isolate (source animal id): 299	> 32
isolate (source animal id): 300	32 (≈ 34.9 µM)
isolate (source animal id): 302	> 32
isolate (source animal id): 304	> 32
isolate (source animal id): 306	> 32
isolate (source animal id): 308	> 32
isolate (source animal id): 309	> 32
isolate (source animal id): 313	> 32
isolate (source animal id): 318	> 32
isolate (source animal id): 320	> 32
isolate (source animal id): 321	> 32
isolate (source animal id): 323	> 32
isolate (source animal id): 324	> 32
isolate (source animal id): 326	> 32
isolate (source animal id): 328	> 32
isolate (source animal id): 329	> 32
isolate (source animal id): 333	> 32
isolate (source animal id): 335	> 32
isolate (source animal id): 338	> 32

CC1(C)S[C@@H]2[C@H](NC(=O)[C@H](N)c3ccccc3)C(=O)N2[C@H]1C(=O)O [Ampicillin]
Conditions	minimum inhibitory concentration [µg/mL]
isolate (source animal id): 8	≤ 0.25
isolate (source animal id): 13	≤ 0.25
isolate (source animal id): 18	≤ 0.25
isolate (source animal id): 21	≤ 0.25
isolate (source animal id): 25	≤ 0.25
isolate (source animal id): 27	≤ 0.25
isolate (source animal id): 28	> 16
isolate (source animal id): 30	≤ 0.25
isolate (source animal id): 31	> 16
isolate (source animal id): 32	≤ 0.25
isolate (source animal id): 34	≤ 0.25
isolate (source animal id): 36	≤ 0.25
isolate (source animal id): 37	≤ 0.25
isolate (source animal id): 40	≤ 0.25
isolate (source animal id): 41	≤ 0.25
isolate (source animal id): 43	≤ 0.25
isolate (source animal id): 46	≤ 0.25
isolate (source animal id): 49	≤ 0.25
isolate (source animal id): 50	> 16
isolate (source animal id): 51	≤ 0.25
isolate (source animal id): 52	≤ 0.25
isolate (source animal id): 53	≤ 0.25
isolate (source animal id): 55	≤ 0.25
isolate (source animal id): 56	≤ 0.25
isolate (source animal id): 57	≤ 0.25
isolate (source animal id): 100	≤ 0.25
isolate (source animal id): 103	≤ 0.25
isolate (source animal id): 107	≤ 0.25
isolate (source animal id): 108	≤ 0.25
isolate (source animal id): 112	≤ 0.25
isolate (source animal id): 113	≤ 0.25
isolate (source animal id): 121	> 16
isolate (source animal id): 122	≤ 0.25
isolate (source animal id): 123	0.5 (≈ 1.43 µM)
isolate (source animal id): 126	> 16
isolate (source animal id): 133	≤ 0.25
isolate (source animal id): 135	≤ 0.25
isolate (source animal id): 138	> 16
isolate (source animal id): 141	≤ 0.25
isolate (source animal id): 142	≤ 0.25
isolate (source animal id): 145	≤ 0.25
isolate (source animal id): 149	≤ 0.25
isolate (source animal id): 151	≤ 0.25
isolate (source animal id): 152	≤ 0.25
isolate (source animal id): 154	≤ 0.25
isolate (source animal id): 159	16 (≈ 45.8 µM)
isolate (source animal id): 162	8 (≈ 22.9 µM)
isolate (source animal id): 170	> 16
isolate (source animal id): 171	≤ 0.25
isolate (source animal id): 172	> 16
isolate (source animal id): 173	> 16
isolate (source animal id): 179	> 16
isolate (source animal id): 180	> 16
isolate (source animal id): 183	> 16
isolate (source animal id): 186	> 16
isolate (source animal id): 187	> 16
isolate (source animal id): 188	> 16
isolate (source animal id): 190	≤ 0.25
isolate (source animal id): 191	> 16
isolate (source animal id): 192	≤ 0.25
isolate (source animal id): 201	> 16
isolate (source animal id): 202	> 16
isolate (source animal id): 209	> 16
isolate (source animal id): 211	> 16
isolate (source animal id): 220	> 16
isolate (source animal id): 221	16 (≈ 45.8 µM)
isolate (source animal id): 223	> 16
isolate (source animal id): 233	> 16
isolate (source animal id): 237	≤ 0.25
isolate (source animal id): 241	> 16
isolate (source animal id): 252	≤ 0.25
isolate (source animal id): 253	≤ 0.25
isolate (source animal id): 259	16 (≈ 45.8 µM)
isolate (source animal id): 260	≤ 0.25
isolate (source animal id): 262	> 16
isolate (source animal id): 282	> 16
isolate (source animal id): 287	≤ 0.25
isolate (source animal id): 288	≤ 0.25
isolate (source animal id): 291	≤ 0.25
isolate (source animal id): 293	≤ 0.25
isolate (source animal id): 298	≤ 0.25
isolate (source animal id): 299	≤ 0.25
isolate (source animal id): 300	≤ 0.25
isolate (source animal id): 302	≤ 0.25
isolate (source animal id): 304	≤ 0.25
isolate (source animal id): 306	≤ 0.25
isolate (source animal id): 308	≤ 0.25
isolate (source animal id): 309	≤ 0.25
isolate (source animal id): 313	≤ 0.25
isolate (source animal id): 318	≤ 0.25
isolate (source animal id): 320	≤ 0.25
isolate (source animal id): 321	≤ 0.25
isolate (source animal id): 323	≤ 0.25
isolate (source animal id): 324	≤ 0.25
isolate (source animal id): 326	≤ 0.25
isolate (source animal id): 328	≤ 0.25
isolate (source animal id): 329	≤ 0.25
isolate (source animal id): 333	≤ 0.25
isolate (source animal id): 335	≤ 0.25
isolate (source animal id): 338	≤ 0.25
